Results: publication PMC5805504 (Oncotarget, 2017)
Values joined by “and” are separate entries in the source; they are usually repeats but may differ in a detail not shown here. Equal values may be shown once. Read-outs that look alike come from different tables or passages of the source.

Columns and labels:
TGFβRII [1] = molecular target: T1, TGFβRII (Homo sapiens, UniProt P37173); assay: Autophosphorylation kinase assay
TGFβRII [2] = molecular target: T1, TGFβRII; assay: Confirmatory TGFβRII binding assay
[3] = tested on: 4T1 syngenic murine breast cancer model; assay: 4T1 in vivo syngenic breast cancer model; design: species or system BALB/c mice
Method: Female BALB/c mice from Taconic Farms weighing 20 to 24 grams were acclimated for 1 week prior to study initiation, had ad libitum access to food and were shaved in the implant area prior to the orthotopic injection of 1 × 10^5 4T1 cells into the mammary fat pad in a volume of 20 μL media. Ten animals per group were utilized for tumor measurement and survival endpoints. […] Tumor volumes were determined by electronic caliper every 2 to 3 days. Statistical analysis was performed by repeated measures analysis and Kaplan-Meier analysis.

[4] = tested on: human NK and CD8+ T cells; assay: TGFβ1 suppression of human NK and CD8+ T cell cytokine secretion; type: cell-based; conditions: TGFβ1 10 ng/ml, ELISA
Method: Blood from healthy donors were obtained from the New York Blood Center. After isolation of PBMCs via high density gradient centrifugation with Ficoll-Paque, NK cells and CD8^+ T cells were purified from PBMCs by magnetic antibody sorting (Miltenyi Biotec) following the manufacturer's instructions. Purified CD8^+ T cells and NK cells were re-suspended separately in complete media (RPMI1640, 5% FBS, 10mM HEPES, 1×NEAA, 1×L-glu, sodium pyruvate, 1×penn/strep, 0.055 mM βME, 50 U/ml IL-2) and plated in 96-well plates at 37°C for 2 days at a density of 5 × 10^4/well, in triplicates. CD8^+ T cells were stimulated with human T cell activation/expansion beads (Miltenyi Biotec; 130-091-441), while NK cells were stimulated with the same beads plus 10 U/ml IL-2. Cells were cultured with or without TGFβ1 at 10 ng/ml. […] Cytokine release in supernatants was measured by ELISA (R&D; human Granzyme B: DY2906; human INFγ: DY285-05). One-way ANOVA with Dunnett's test was used to compare the TGFβ+Gal treatments to the TGFβ+DMSO treatment.

pSMAD in EMT6-LM2 cells = assay: TGFβ1-induced pSMAD inhibition in EMT6-LM2 cells (ELISA)
Method: (§2) Next, the samples were homogenized for 15 seconds using Bioruptor® UCD-200 by Diagenode at medium power.
(§3) Total and pSMAD2/3 levels were assessed independently on two separate ELISA plates. […] To the pSMAD ELISA plate, 100 μL per well of lysate (ranging from 0.04-0.1 mg total protein) was added to the appropriate wells. To the total SMAD ELISA plate, 10% of the total protein that was added to the pSMAD, was added to the appropriate wells (0.004-0.01 mg protein final). A standard curve was also added to both ELISA plates (p- and tSMAD plates) using recombinant HIS-pSMAD2 protein (Eli Lilly and Company). Plates were incubated overnight then washed four times with wash buffer. […] Following one hour of incubation, plates were washed and developed using 3, 3’, 5, 5’-tetramethylbenzidine substrate (TMB; Surmodics/BioFX #TMBW-0100-01) and absorbance (OD) was read at 450 nm on a plate reader.
(§4) Percent inhibition of normalized pSMAD2 levels was calculated by first determining the ratio of tSMAD to pSMAD values for the vehicle group. […]

[5] = second line glioblastoma; cited from earlier work
pSMAD in 4T1-LP cells = assay: TGFβ1-induced pSMAD inhibition in 4T1-LP cells (ELISA)
Method: as §2, §3, §4

pSMAD in human PBMCs = tested on: pSMAD in human PBMCs; design: method as in PMID 17453744; conditions: cited from earlier work
Alk3/BMPR1A = molecular target: T2, Alk3/BMPR1A (Homo sapiens, UniProt P36894); assay: KINOMEscan kinase competition binding assay (DiscoverX); conditions: absence of ATP, three-point titration
T2 construct: purchased DiscoverX
Text: (§1) Data are presented as Geomean ± SD.

ACVR2A = molecular target: T3, ACVR2A (Homo sapiens, UniProt P27037); assay: as above; conditions: absence of ATP, three-point titration
T3 construct: purchased DiscoverX
Text: as §1

ACVR2B = molecular target: T4, ACVR2B (Homo sapiens, UniProt Q13705); assay: as above; conditions: absence of ATP, three-point titration
T4 construct: purchased DiscoverX
Text: as §1

Braf = molecular target: T5, Braf (Homo sapiens, UniProt P15056); assay: as above; conditions: absence of ATP, three-point titration
T5 construct: purchased DiscoverX
Text: as §1

ZAK = molecular target: T6, ZAK (Homo sapiens, UniProt Q9NYL2); assay: as above; conditions: absence of ATP, three-point titration
T6 construct: purchased DiscoverX
Text: as §1

GAK = molecular target: T7, GAK (Homo sapiens, UniProt O14976); assay: as above; conditions: absence of ATP, three-point titration
T7 construct: purchased DiscoverX
Text: as §1

CSNK1E1 = molecular target: T8, CSNK1E1 (Homo sapiens, UniProt P49674); assay: as above; conditions: absence of ATP, three-point titration
T8 construct: purchased DiscoverX
Text: as §1

Alk6/BMPR1 = molecular target: T9, Alk6/BMPR1 (Homo sapiens, UniProt O00238); assay: as above; conditions: absence of ATP, three-point titration
T9 construct: purchased DiscoverX
Text: as §1

Abl1 = molecular target: T10, Abl1 (Homo sapiens, UniProt P00519); assay: as above; conditions: absence of ATP, three-point titration
T10 construct: purchased DiscoverX
Text: as §1

RIPK2 = molecular target: T11, RIPK2 (Homo sapiens, UniProt O43353); assay: as above; conditions: absence of ATP, three-point titration
T11 construct: purchased DiscoverX
Text: as §1

Alk4/ACVR1B = molecular target: T12, Alk4/ACVR1B (Homo sapiens, UniProt P36896); assay: as above; conditions: absence of ATP, three-point titration
T12 construct: purchased DiscoverX
Text: as §1

TNIK = molecular target: T13, TNIK (Homo sapiens, UniProt Q9UKE5); assay: as above; conditions: absence of ATP, three-point titration
T13 construct: purchased DiscoverX
Text: as §1

NLK = molecular target: T14, NLK (Homo sapiens, UniProt Q9UBE8); assay: as above; conditions: absence of ATP, three-point titration
T14 construct: purchased DiscoverX
Text: as §1

BMPR2 = molecular target: T15, BMPR2 (Homo sapiens, UniProt Q13873); assay: as above; conditions: absence of ATP, three-point titration
T15 construct: purchased DiscoverX
Text: as §1

TGFβR2 = molecular target: T16, TGFβR2 (Homo sapiens, UniProt P37173); assay: as above; conditions: absence of ATP, three-point titration
T16 construct: purchased DiscoverX
Text: as §1

Alk1/ACVRL1 = molecular target: T17, Alk1/ACVRL1 (Homo sapiens, UniProt P37023); assay: as above; conditions: absence of ATP, three-point titration
T17 construct: purchased DiscoverX
Text: as §1

Alk2/ACVR1 = molecular target: T18, Alk2/ACVR1 (Homo sapiens, UniProt Q04771); assay: as above; conditions: absence of ATP, three-point titration
T18 construct: purchased DiscoverX
Text: as §1

MINK = molecular target: T19, MINK (Homo sapiens, UniProt Q8N4C8); assay: as above; conditions: absence of ATP, three-point titration
T19 construct: purchased DiscoverX
Text: as §1

RSK4 = RSK4 (Homo sapiens, UniProt Q9UK32); assay: as above; conditions: absence of ATP, three-point titration
Text: as §1

[6] = rats; cited from earlier work

T1 sequence (P37173 23-567): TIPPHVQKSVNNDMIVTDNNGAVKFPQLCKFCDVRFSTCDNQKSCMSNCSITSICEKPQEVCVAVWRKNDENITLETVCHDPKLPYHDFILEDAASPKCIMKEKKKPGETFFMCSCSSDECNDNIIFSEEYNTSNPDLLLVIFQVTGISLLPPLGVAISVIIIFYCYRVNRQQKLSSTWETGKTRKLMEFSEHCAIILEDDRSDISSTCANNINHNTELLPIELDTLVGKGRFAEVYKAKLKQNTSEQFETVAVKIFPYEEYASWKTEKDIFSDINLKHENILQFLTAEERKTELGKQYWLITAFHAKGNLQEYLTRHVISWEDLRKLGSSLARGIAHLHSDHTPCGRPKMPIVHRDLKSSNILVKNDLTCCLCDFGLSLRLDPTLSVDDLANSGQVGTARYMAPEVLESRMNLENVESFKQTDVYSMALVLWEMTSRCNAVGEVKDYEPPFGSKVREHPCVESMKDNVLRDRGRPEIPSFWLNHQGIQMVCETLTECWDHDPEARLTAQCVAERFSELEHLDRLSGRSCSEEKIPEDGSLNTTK
T16 sequence (P37173 23-567): as above
T9 sequence (O00238 14-502): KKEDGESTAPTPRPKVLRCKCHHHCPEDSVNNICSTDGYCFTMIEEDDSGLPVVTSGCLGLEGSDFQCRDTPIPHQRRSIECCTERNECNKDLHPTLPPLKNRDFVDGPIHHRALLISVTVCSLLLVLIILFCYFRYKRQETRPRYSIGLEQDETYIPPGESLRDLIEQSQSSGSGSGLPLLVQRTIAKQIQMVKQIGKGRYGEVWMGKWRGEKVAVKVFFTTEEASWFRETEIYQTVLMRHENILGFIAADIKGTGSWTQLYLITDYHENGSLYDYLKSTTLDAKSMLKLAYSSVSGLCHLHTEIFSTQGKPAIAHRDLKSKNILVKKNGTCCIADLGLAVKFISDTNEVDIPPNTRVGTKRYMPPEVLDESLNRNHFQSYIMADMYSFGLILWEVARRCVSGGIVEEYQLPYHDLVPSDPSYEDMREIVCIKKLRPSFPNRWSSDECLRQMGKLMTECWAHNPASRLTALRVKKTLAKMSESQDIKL
T4 sequence (Q13705 19-512): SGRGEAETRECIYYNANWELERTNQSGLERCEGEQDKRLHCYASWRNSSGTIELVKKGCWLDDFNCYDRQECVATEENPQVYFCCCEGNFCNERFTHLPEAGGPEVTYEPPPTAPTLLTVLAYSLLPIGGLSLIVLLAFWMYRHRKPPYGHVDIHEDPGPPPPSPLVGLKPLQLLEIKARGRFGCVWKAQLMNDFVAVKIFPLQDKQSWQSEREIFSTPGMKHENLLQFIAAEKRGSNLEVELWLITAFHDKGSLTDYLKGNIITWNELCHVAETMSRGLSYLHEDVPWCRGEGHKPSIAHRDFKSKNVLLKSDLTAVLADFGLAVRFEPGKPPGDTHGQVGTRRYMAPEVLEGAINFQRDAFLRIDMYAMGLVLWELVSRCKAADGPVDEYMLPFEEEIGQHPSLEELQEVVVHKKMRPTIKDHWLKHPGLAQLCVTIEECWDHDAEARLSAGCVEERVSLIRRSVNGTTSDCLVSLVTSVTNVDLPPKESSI
T12 sequence (P36896 24-505): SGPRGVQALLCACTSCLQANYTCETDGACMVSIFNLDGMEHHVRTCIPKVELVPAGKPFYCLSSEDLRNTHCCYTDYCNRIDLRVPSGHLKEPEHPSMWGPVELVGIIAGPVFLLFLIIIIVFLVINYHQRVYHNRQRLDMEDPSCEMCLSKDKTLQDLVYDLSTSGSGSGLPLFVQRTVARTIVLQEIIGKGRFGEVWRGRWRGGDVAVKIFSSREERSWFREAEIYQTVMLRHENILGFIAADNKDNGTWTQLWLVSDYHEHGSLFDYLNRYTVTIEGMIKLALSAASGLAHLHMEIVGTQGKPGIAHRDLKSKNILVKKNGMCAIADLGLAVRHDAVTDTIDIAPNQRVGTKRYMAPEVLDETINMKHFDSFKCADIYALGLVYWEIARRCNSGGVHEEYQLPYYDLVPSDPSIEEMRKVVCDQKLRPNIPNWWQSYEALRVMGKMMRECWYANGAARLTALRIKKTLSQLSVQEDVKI
T5 sequence (P15056 whole entry): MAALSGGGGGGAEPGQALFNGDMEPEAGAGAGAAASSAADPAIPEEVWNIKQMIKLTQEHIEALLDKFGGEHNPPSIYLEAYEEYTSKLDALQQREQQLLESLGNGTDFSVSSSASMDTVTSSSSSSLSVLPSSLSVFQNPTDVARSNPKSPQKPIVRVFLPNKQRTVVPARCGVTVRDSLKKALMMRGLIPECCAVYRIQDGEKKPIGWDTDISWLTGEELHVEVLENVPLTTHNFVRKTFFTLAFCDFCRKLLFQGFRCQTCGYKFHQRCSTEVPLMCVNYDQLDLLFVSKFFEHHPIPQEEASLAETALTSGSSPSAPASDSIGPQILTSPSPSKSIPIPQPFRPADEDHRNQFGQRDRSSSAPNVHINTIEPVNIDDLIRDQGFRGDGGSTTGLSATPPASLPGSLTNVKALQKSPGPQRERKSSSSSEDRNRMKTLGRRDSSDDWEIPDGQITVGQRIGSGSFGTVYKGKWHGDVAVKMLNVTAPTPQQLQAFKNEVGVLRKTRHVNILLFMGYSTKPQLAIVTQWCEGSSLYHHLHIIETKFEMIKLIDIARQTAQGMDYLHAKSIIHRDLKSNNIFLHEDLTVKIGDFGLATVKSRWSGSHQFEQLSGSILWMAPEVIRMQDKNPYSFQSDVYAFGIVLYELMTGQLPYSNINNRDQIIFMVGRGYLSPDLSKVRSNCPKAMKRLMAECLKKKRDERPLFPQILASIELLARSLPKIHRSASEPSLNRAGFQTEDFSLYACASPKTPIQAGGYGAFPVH
T18 sequence (Q04771 21-509): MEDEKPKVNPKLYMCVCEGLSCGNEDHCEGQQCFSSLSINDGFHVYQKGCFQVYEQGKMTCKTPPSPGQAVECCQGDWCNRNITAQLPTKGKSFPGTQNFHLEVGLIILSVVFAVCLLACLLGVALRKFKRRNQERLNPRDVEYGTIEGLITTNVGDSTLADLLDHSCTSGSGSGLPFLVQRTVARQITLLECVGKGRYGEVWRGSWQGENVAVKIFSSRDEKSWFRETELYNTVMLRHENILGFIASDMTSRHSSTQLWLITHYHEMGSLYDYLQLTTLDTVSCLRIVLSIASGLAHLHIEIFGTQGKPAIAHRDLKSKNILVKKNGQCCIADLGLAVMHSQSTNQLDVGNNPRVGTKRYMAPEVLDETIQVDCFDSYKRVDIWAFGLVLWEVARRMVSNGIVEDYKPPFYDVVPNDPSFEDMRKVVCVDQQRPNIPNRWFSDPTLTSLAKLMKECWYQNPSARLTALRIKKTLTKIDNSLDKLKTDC
T11 sequence (O43353 whole entry): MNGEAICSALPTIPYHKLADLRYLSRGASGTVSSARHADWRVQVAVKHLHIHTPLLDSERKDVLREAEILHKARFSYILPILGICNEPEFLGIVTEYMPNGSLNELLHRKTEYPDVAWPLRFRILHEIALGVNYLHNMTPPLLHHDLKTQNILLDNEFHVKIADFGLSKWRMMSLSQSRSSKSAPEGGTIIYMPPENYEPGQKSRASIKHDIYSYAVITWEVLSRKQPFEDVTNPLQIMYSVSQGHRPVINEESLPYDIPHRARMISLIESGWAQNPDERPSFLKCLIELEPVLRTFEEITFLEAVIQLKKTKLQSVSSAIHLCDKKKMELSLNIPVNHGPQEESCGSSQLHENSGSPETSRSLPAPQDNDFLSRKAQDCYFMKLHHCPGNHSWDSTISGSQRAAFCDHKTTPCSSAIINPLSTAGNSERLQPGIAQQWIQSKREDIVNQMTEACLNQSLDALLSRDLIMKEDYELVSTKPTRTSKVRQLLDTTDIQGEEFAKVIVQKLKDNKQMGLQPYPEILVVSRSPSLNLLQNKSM
T14 sequence (Q9UBE8 whole entry): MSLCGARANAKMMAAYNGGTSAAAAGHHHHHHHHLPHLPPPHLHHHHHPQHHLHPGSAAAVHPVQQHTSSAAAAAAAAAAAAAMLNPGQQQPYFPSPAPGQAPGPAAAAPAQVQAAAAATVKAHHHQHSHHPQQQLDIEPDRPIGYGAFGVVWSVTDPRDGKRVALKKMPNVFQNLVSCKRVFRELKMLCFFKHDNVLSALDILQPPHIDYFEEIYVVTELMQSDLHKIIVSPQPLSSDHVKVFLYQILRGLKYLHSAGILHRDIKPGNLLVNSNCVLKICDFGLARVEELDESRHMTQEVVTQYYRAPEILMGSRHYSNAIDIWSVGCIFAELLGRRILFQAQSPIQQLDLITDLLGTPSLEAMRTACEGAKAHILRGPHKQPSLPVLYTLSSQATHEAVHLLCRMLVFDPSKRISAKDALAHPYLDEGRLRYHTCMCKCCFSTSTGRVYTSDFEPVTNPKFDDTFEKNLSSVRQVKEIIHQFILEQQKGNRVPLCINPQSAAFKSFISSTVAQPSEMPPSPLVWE
T2 sequence (P36894 24-532): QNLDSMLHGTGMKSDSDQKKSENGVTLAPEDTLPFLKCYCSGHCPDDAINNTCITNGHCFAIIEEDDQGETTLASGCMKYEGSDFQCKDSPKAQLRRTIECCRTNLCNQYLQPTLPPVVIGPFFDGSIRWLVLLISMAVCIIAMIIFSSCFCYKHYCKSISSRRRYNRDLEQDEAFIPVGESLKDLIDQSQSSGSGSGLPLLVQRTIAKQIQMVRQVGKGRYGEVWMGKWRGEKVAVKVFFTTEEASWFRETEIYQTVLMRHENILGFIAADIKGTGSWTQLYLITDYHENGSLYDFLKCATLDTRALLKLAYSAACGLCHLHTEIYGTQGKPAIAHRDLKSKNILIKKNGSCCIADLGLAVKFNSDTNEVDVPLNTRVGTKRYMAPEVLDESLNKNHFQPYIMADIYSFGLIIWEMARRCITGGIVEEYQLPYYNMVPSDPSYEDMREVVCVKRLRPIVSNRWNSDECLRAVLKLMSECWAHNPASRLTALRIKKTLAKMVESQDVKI
Method for pSMAD in Calu6 tumors: (§5) For in vivo measurement of tumor cell pSMAD activity, tumors were harvested from mice at the indicated time points post-treatment, snap frozen in liquid nitrogen, then pulverized in lysis buffer [EDTA 5 mM, EGTA 5 mM, sodium pyrophosphate 30 mM, sodium chloride 6.7 mM, sodium fluoride 50 mM, and 1% triton in water, pH 7.4 with protease and phosphatase inhibitors (Sigma, p8340, p5726, p0044) and sodium orthovanadate 2.5 mM]. Protein concentration was estimated with DC protein assay kit (BioRad).
(§6) Percent inhibition of normalized pSMAD2 levels was calculated by first determining the ratio of tSMAD to pSMAD values for the vehicle group. […] Percent inhibition for compound treated groups was determined relative to the minimum pSMAD inhibition of the vehicle group using the formula: [(100- (normalized pSMAD in the experimental treatment group/normalized pSMAD in the vehicle treated group)]. IC50 of pSMAD inhibition was calculated for the data using non-linear regression to fit the standard four parameter logistic model using GraphPad Prism 6.
(§7) Female athymic nu/nu mice or immune competent syngenic BALB/c mice (Charles River or Taconic Farms, respectively, 22 to 28 grams) were maintained in microisolator cages, received food and water ad libitum, and were quarantined for 1 week before experimental manipulation. Sub-confluent Calu6 human non-small cell lung cancer (NSCLC) cells were injected subcutaneously in the flank of nude mice (1x 10^7cells/per animal) in 0.2 mL of culture medium mixed with Matrigel (BD Biosciences, 1:1 v/v). EMT6-LM2 murine triple negative breast cancer tumor cells (5 × 10^5 cells/per animal in the absence of matrigel) were implanted on the flank of BALB/c mice. EMT6-LM2 cells were generated from parental EMT6 cells which were passaged twice from spontaneous lung metastases (LM) following subcutaneous growth. When the tumor volume reached ~250 mm^3, mice were randomized and separated into treatment groups.
(§8) Tumors and plasma were collected 2 hours post dosage for analysis of pSMAD and compound levels.
(§9) Tumors and plasma were collected at the indicated time points (0.5, 1, 1.5, 2, 4, 8, and 16 hours) for analysis of pSMAD and compound levels.
(§10) Percent target inhibition was calculated as described above then was modeled as a function of either dose or plasma concentration.
Method for pSMAD in EMT6-LM2 tumors: as §5, §6, §7, §8, §9, §10

## Cc1cccc(-c2nn3c(c2-c2ccnc4ccc(C(N)=O)cc24)CCC3)n1.O [galunisertib, 4-[2-(6-methylpyridin-2-yl)-5,6-dihydro-4H-pyrrolo[1,2-b]pyrazol-3-yl]quinoline-6-carboxamide monohydrate]
TGFβRII [1]
  IC50: 2000 nM
pSMAD in EMT6-LM2 tumors; EMT6-LM2, at 30 minutes
  pSMAD inhibition at maximum plasma exposure: ~ 70%
pSMAD in EMT6-LM2 tumors; EMT6-LM2, single oral dose, tumors 2 hours post dosage
  TED50, total effective dose to inhibit 50% pSMAD: 19.7 mg/kg
pSMAD in EMT6-LM2 tumors; EMT6-LM2 time course, single oral dose
  maximum plasma exposure: up to 6 μM
TGFβRII [2]
  IC50: 430 nM
[3]; 75 mg/kg twice daily oral gavage, 500 mm^3 crossing time, p < 0.01
  tumor growth delay: 13 ± 2.4 days
[3]; 75 mg/kg twice daily, Kaplan-Meier, p = 0.01
  survival advantage: 4.5 days
[3]; 75 mg/kg twice daily, data not shown
  body weight: No body weight loss
[4]
  TGFβ1 suppression of IFNγ and granzyme B secretion: prevented the suppression of IFNγ and granzyme B secretion
pSMAD in EMT6-LM2 cells; Mus musculus, read-out: IC50, pSMAD activity, EMT6-LM2, TGFβ1 10 ng/ml, ELISA
  IC50: 894 nM
pSMAD in EMT6-LM2 cells; read-out: IC50, pSMAD activity, EMT6-LM2, TGFβ1 10 ng/ml, ELISA
  IC50: 890 nM
[5]
  clinical outcome versus lomustine, phase II: failed to show improvement over lomustine
pSMAD in 4T1-LP cells; Mus musculus, read-out: IC50, pSMAD activity, 4T1-LP, TGFβ1 10 ng/ml, ELISA
  IC50: 1760 nM
pSMAD in 4T1-LP cells; read-out: IC50, pSMAD activity, 4T1-LP, TGFβ1 10 ng/ml, ELISA
  IC50: 1770 nM
pSMAD in human PBMCs
  pSMAD in human PBMCs ex vivo: inhibit pSMAD
pSMAD in Calu6 tumors; Calu6, at 30 minutes
  pSMAD inhibition at maximum plasma exposure: ~ 70%
pSMAD in Calu6 tumors; Calu6, single oral dose, tumors 2 hours post dosage
  TED50, total effective dose to inhibit 50% pSMAD: 15.6 mg/kg
pSMAD in Calu6 tumors; Calu6 time course, single oral dose
  maximum plasma exposure: up to 6 μM
Alk3/BMPR1A
  IC50: 16800 nM
ACVR2A
  IC50: > 20000 nM
ACVR2B
  IC50: 690 nM and 694 nM
Braf
  IC50: 500 nM
ZAK
  IC50: 860 nM
GAK
  IC50: 310 nM
CSNK1E1
  IC50: 400 nM
Alk6/BMPR1
  IC50: 470 nM
Alk6/BMPR1; listed as Galunisertib
  IC50: 471 nM
Abl1
  IC50: 860 nM
RIPK2
  IC50: 220 nM
Alk4/ACVR1B
  IC50: 80 nM
Alk4/ACVR1B; listed as Galunisertib
  IC50: 77.7 nM
TNIK
  IC50: 510 nM
NLK
  IC50: 910 nM
BMPR2
  IC50: > 60000 nM
TGFβR2
  IC50: 210 nM
TGFβR2; listed as Galunisertib
  IC50: 208 nM
Alk1/ACVRL1
  IC50: > 20000 nM
Alk2/ACVR1
  IC50: > 20000 nM
MINK
  IC50: 190 nM
RSK4
  IC50: 720 nM
[6]
  adverse effects at high doses: associated with adverse effects
